Laboratory results taken from PMC10525516, “Novel NADPH Oxidase-2 Inhibitors as Potential Anti-Inflammatory and Neuroprotective Agents” (Antioxidants, 2023).
Counter-ions that a name gives are not always drawn.

Key:
Nox2 [1] = biological target: T1, Nox2 (Homo sapiens, UniProt P04839); assay: CBA probe assay of H2O2 production by PMA-activated dHL60 cells; type: cell-based; conditions: for Nox2 inhibitory potency (SAR statement): replacement of the indole moiety, data not shown; for IC50: PMA (1 µM)-activated dHL60 cells, 30 min preincubation with inhibitor, read-out: IC50, inhibition of H2O2 production, CBA Assay; for Nox2 inhibitory activity: tested at concentrations of up to 50 µM
T1 construct: endogenous in cells
T1 sequence (P04839 2-570 limits assumed): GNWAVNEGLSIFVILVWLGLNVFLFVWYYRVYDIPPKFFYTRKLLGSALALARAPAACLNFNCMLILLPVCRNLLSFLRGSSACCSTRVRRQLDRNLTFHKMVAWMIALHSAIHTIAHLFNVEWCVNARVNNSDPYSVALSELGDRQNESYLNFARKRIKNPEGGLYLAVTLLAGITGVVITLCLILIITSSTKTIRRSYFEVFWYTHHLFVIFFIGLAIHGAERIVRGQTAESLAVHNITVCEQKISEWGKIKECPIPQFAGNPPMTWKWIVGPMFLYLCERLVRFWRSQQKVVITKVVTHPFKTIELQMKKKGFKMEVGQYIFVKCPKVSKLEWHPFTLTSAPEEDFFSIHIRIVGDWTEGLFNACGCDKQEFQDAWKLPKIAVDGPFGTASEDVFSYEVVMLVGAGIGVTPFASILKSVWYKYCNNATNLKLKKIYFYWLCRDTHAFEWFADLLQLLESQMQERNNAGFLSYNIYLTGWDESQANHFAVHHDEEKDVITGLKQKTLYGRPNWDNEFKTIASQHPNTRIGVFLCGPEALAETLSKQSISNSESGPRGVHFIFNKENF
T1 sequence (P13498 2-195 partner limits assumed): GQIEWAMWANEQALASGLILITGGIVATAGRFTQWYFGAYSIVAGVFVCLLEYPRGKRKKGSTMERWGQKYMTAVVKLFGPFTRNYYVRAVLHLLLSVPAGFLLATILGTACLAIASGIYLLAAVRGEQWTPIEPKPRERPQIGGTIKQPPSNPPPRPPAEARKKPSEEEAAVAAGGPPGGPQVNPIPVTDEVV
Experimental: (§1) Human promyelocytic leukemia HL60 cells (Sigma-Aldrich) were grown in RPMI 1640 medium (Gibco, 11875-093, Billings, MT, USA) supplemented with 10% FBS (Omega Scientific (Tarzana, CA, USA)), 100 units/mL penicillin, and 100 µg/mL streptomycin, and were incubated at 37 °C and 5% carbon dioxide (CO2). For differentiation to neutrophil-like cells, HL60 cells were pelleted and resuspended in fresh media containing 1 µM of all trans-retinoic acid and incubated for four to five days. Nox2 activation was achieved by treating differentiated HL60 (dHL60) cells with 1 µM PMA [24]. Human leukemia monocytic cells, THP-1, were grown in RPMI 1640 medium + GlutaMAX^TM (Gibco, 61870-036) and supplemented with 10% FBS, 10 mM HEPES, and 1 mM sodium pyruvate and incubated at 37 °C in 5% CO2 environment. To induce differentiation into macrophages, THP-1 cells were treated with PMA (100 ng/mL) for 48 h. To test the efficacy of Nox2 inhibitors, treatment was performed with or without the inhibitor, along with PMA [35].
(§2) Plate reader-based analyses of the production of O2^•− and H2O2 by PMA-activated dHL60 cells were performed according to a published protocol with minor modifications. Briefly, for the treatment of dHL60 cells with different concentrations of the compounds, 0.5 mL deep-well 96-well plates were used to dispense and store aliquots of their 10 mM DMSO solutions. Using a Multidrop™ PicoIT dispenser (Thermo Scientific), different volumes of the solutions of candidate Nox inhibitors (10 or 50 mM in DMSO) were injected into the bottom of 0.5 mL V-bottom 96-well plates; then, they were sealed with aluminum foil (VWR, Batavia, IL, USA) using a semiautomatic thermal sealer (BT LabSystems, St. Louis, MO, USA) and stored at −20 °C to reduce freeze-thawing the solutions. The plates with inhibitors were allowed to come to room temperature before the addition of the cell suspensions. dHL60 cells were pelleted and resuspended in HBSS (Invitrogen, Waltham, MA, USA) supplemented with 25 mM HEPES (pH 7.4) and 100 µM DTPA to a cell density of 2 × 10^5 cells/mL. dHL60 cells were added to the V-bottom plates at a volume of 210 µL/well. Next, cells were incubated with inhibitors for 30 min at 37 °C in a CO2-free incubator under ambient oxygen and then transferred to black, clear-bottom 96-well plates (200 µL/well) after incubation. Freshly prepared PMA plus probe solutions in HBSS (5× concentrated, 50 µL/well) included PMA (5 µM) with CBA (500 µM) or with Amplex Red (250 µM) plus HRP (0.5 U/mL) for H2O2 detection, or with HE (50 µM) plus DNA (0.5 mg/mL) for O2^•− detection. Once probes + PMA were added, plates were sealed with sealing film and immediately placed in the pre-warmed plate readers (37 °C). Fluorescence intensities were monitored kinetically from the bottom of the plates every 1.3 min for a period of 2 h using Beckman Coulter (Brea, CA, USA) DTX880 and BMG Labtech (Ortenberg, Germany) FLUOstar Omega plate readers. DMSO alone and DPI (10 µM) were used as negative and positive controls, respectively. […] The IC50 values were determined using at least five independent measurements, each consisting of technical quadruplicates per concentration.

dHL60 cells = assay: Cell Titer Glo 2.0 cytotoxicity (ATP) assay in PMA-stimulated dHL60 cells; type: cell-based, human; conditions: for IC50: Homo sapiens, Cell Titer Glo 2.0, PMA-stimulated dHL60 cells, 2.5 h with inhibitor, unit not printed in Table 3, taken from text, read-out: IC50, Viability Assay
Experimental: The cytotoxicity of the inhibitors was tested by measuring the amount of ATP in the wells containing PMA-stimulated dHL60 cells and the candidate inhibitors. Cells were prepared as described for the plate reader-based measurements for H2O2, except that the cells were maintained with the inhibitors in a CO2-free incubator at 37 °C for 2.5 h to mirror the conditions during the fluorescence-based monitoring of H2O2 described above. After incubation, cells (100 µL/well) were transferred to white 96-well plates (Greiner, Kremsmünster, Austria), and the total cellular ATP amount was determined using the Cell Titer Glo 2.0 (Promega) cytotoxicity assay (100 µL/well) by measuring the luminescence intensity using a Beckman Coulter DTX880 plate reader.

THP-1 cells = assay: qRT-PCR mRNA expression of Nox2 subunits and inflammatory mediators in PMA-treated THP-1 cells; type: cell-based, human; conditions: 3 µM, 48 h with PMA 100 ng/mL
Experimental: as §1
mRNA expression analysis was performed as previously described. Briefly, THP-1 cells were treated with PMA (100 ng/mL) with or without the Nox2 inhibitor TG15-132 (3.0 µM) for 48 h. RNA extraction was done using the Quick-RNA miniprep kit (cat. no. R1055, Zymo Research, Irvine, CA, USA) and followed by cDNA synthesis using the qScript cDNA superMix kit (cat. no. 84035, Quantabio, Beverly, MA, USA). Quantitative real-time PCR was performed using specific primers designed to amplify target genes (Table 2). Data obtained were analyzed and converted into fold changes in expression with respect to vehicle-treated cells.

[2] = Short-term (seven day) in vivo toxicity in mice; design: species or system C57BL/6 mice; conditions: 20 mg/kg, seven days, Figure 9B
Experimental: All animal experiments were performed according to protocols and guidelines approved by the Emory University Animal Care and Use Committee. The in vivo toxicity of TG15-132 was assessed using C57BL/6 mice (cat. no. 027, Charles River Laboratories, Wilmington, MA, USA). Animals were injected daily (i.p.) with saline, vehicle (DMSO 10%, PEG400 30%, water 60%), or 20 mg/kg of TG15-132 in vehicle for seven days, with body weight recorded each day. At the end of treatment, organs were harvested to study organ weight loss, and blood was collected from each mouse via cardiac puncture, and serum was isolated. Serum was analyzed for kidney function using blood urea nitrogen and creatinine, liver function using alanine amino transferase, and tissue damage using lactate dehydrogenase.

[3] = In vivo pharmacokinetics / brain penetration, species not specified (rodent models); conditions: brain; species and dose not stated; data not shown; read-out: brain-to-plasma ratio
Description: Rapid metabolism and the inability to cross the BBB represent major obstacles in the application of bioactive agents in neurodegenerative diseases. Based on the premise that Nox2 plays a major role in oxidative damage and exacerbates neurodegenerative diseases, we envision applications of brain-permeable Nox2 inhibitors in mechanistic studies in vivo, and, long-term, in the development of novel therapeutic strategies. Therefore, we performed in vivo pharmacokinetics studies to determine the time profile of plasma concentration and accumulation of TG15-132 in the brain tissue of Sprague Dawley rats and C57BL6 mice.

Nox2 [4] = biological target: T1, Nox2; assay: Amplex Red/HRP assay of H2O2 production by PMA-activated dHL60 cells; type: cell-based; conditions: for IC50: PMA (1 µM)-activated dHL60 cells, 30 min preincubation, read-out: IC50, inhibition of H2O2 production, Amplex Red Assay
Experimental: as §1, §2

Nox2 [5] = tested on: Nox2; design: method as in PMID 22726689; conditions: library of >200,000 compounds; cited from earlier work

**Q.** Which results are given for `c1ccc2c(c1)[I+]c1ccccc1-2` [DPI, Diphenyleneiodonium chloride, reference compound]?
**A.** inhibitory activity (positive control) (Nox2 [1]; 10 µM): consistently showed inhibitory activity; cytotoxic effects (dHL60 cells; 10 µM, Cell Titer Glo 2.0): did not show any cytotoxic effects

**Q.** Which results are given for `CC(C)n1cc(-c2ccc3c(c2)N(C)CC3)c2c(NS(=O)(=O)c3ccn(C)n3)ccnc21` [GSK 2795039, reference compound]?
**A.** expression of TNF compared with PMA-treated cells (Figure 7B) (THP-1 cells): increased; mRNA expression vs PMA-treated cells, additional experiment (Figure 7B) (THP-1 cells): did not reduce the expression of Nox2 components and inflammatory mediators

**Q.** Which “Nox2 inhibitory potency (SAR statement)” value (Nox2 [1]) does the source give for `CN(C)CCCn1c(SCCc2ccccn2)nc2ccc(Cl)cc2c1=O` [TG15-124] here?
**A.** significant loss in Nox2 inhibitory potency

**Q.** For `CN(C)CCCn1c(SCCc2ccccn2)nc2ccc(F)cc2c1=O` [TG15-131], which “Nox2 inhibitory potency (SAR statement)” value (Nox2 [1]) is on record?
**A.** significant loss in Nox2 inhibitory potency

**Q.** Which “liver or kidney function, tissue damage (serum BUN, CREAT, ALT, LDH)” value [2] does the source give for `CN(C)CCCn1c(SCCc2c[nH]c3ccccc23)nc2ccc(F)cc2c1=O` [TG15-132•HCl] here?
**A.** did not lead to a negative effect

**Q.** For `CN(C)CCCn1c(SCCc2c[nH]c3ccccc23)nc2ccc(Cl)cc2c1=O` [TG15-139], which IC50 (Nox2 [1]) is on record?
**A.** 3.1 ± 1.4 µM

**Q.** What about the Kp [3] of the same compound?
**A.** > 23

**Q.** And the IC50 (Nox2 [4])?
**A.** 4.9 ± 2.3 µM

**Q.** What about the IC50 (dHL60 cells) of the same compound?
**A.** 14.1 ± 1.7 µM

**Q.** And the “cell viability at concentrations showing Nox2 inhibitory potency” value (dHL60 cells; dHL60 cells, Figure 3D,E)?
**A.** no decrease in cell viability

**Q.** What does the source list for `CC(C)N1CCN(C(=O)CCCn2c(SCCc3c[nH]c4ccccc34)nc3ccc(F)cc3c2=O)CC1` [TG15-293]?
**A.** IC50 (Nox2 [1]): 23.6 ± 18.1 µM; fold less potency than TG17-57 in the CBA assay (Nox2 [1]; relative to TG17-57): about 3 fold; IC50 (Nox2 [4]): 67.8 ± 2.6 µM; fold less potency than TG17-57 in the Amplex Red assay (Nox2 [4]; relative to TG17-57): about 7 fold; IC50 (dHL60 cells): 38.3 ± 7.5 µM

**Q.** Which “Nox2 inhibitory potency (SAR statement)” value (Nox2 [1]) does the source give for `CN(C)CCCSc1nc2ccc(F)cc2c(=O)n1CCCN(C)C` [TG17-55] here?
**A.** eliminated potency

**Q.** Which IC50 (Nox2 [1]) does the source give for `CCN1CCN(CCCn2c(SCCc3c[nH]c4ccccc34)nc3ccc(F)cc3c2=O)CC1` [TG17-56] here?
**A.** 5.3 ± 0.6 µM

**Q.** And the IC50 (Nox2 [4])?
**A.** 7.8 ± 4 µM

**Q.** What about the IC50 (dHL60 cells) of the same compound?
**A.** 16.7 ± 2.5 µM

**Q.** Which results are given for `CC(C)N1CCN(CCCn2c(SCCc3c[nH]c4ccccc34)nc3ccc(F)cc3c2=O)CC1` [TG17-57]?
**A.** IC50 (Nox2 [1]): 7 ± 2.8 µM; IC50 (Nox2 [4]): 9.2 ± 0.4 µM; IC50 (dHL60 cells): 20.7 ± 5 µM

**Q.** With `COc1cc(C(C)=O)ccc1O` [apocynin, reference compound] as the compound, how does the Nox2 inhibitory activity (Nox2 [1]) read?
**A.** did not show Nox2 inhibitory activity

**Q.** With `COc1cc(C(C)=O)cc(-c2cc(C(C)=O)cc(OC)c2O)c1O` [diapocynin, reference compound] as the compound, how does the Nox2 inhibitory activity (Nox2 [1]) read?
**A.** did not show Nox2 inhibitory activity

**Q.** Which “Nox2 inhibition in cell-free HTS” value (Nox2 [5]) does the source give for `O=c1c2ccccc2[se]n1-c1ccccc1` [ebselen] here?
**A.** modest Nox2 inhibitors
